Legend:
[1] = system: oligodendrocyte progenitors (OLPs) isolated from mouse cerebral cortex; settings: cited from earlier work
hESC-derived pre-OL = test: Terminal maturation of hESC-derived pre-oligodendrocytes into MBP+ oligodendrocytes (MBP immunostaining); assay type: cell-based, human; settings: pre-OL on laminin
Protocol: Human ESCs (HES1 passages 21 to 42 with a normal karyotype) were cultured as described. hESC colonies were picked up by means of collagenase IV (1 mg/ml; GIBCO-BRL, Gaithersburg, MD) and placed into ultralow adherent culture dishes (Thermo Scientific Nunc HydroCell) to favor sphere aggregation. Spheres were cultured in NDM media consisting of Neural Differentiation Medium (Gibco) and N2B27 supplements with 20 ng/ml FGF-2. Spheres were first patterned with the dual-SMAD inhibitors LDN193189 (1 μM, Cayman Chemical, Ann Arbor, MI) and SB431542 (5 μM, SB; PeproTech Inc, Rocky Hill, NJ) until day 4 when SB431542 was withdrawn and the spheres were further cultured for additional 10 days in the presence LDN193189 and FGF-2. At day 14, the spheres were caudalized and ventralized using 0.1 μM all-trans retinoic acid and 0.5 μM purmorphamine, respectively (PeproTech Inc, Rocky Hill, NJ). At day 35, spheres were switched to modified SATO media, consisting of DMEM/F12, 10 ng/ml biotin, 60 ng/ml progesterone, 16 μg/ml putrescine, 20 μg/ml human insulin, 100 μg/ml apotransferrin, 5 ng/ml sodium selenite, 100 μg/ml bovine serum albumin (BSA), 60 μg/ml N-acetyl cysteine and 2 μg/ml forskolin. The medium was further supplemented with 20 ng/ml FGF-2, 0.5 μM Purmorphamine, 5 ng/ml NT3 and 200 nM ascorbic acid. Media was changed every 3 days for 6-7 weeks. For differentiation, spheres were dissected into small clusters mechanically and plated onto poly-D-lysine/laminin-coated plates and cultured in modified SATO media supplemented with 5 ng/ml NT3, 10 ng/ml IGF-1, 60 ng/ml T3, 100 ng/ml noggin and 200 nM ascorbic acid for 2-4 weeks. […] To block MEK/ERK signaling, PD0325901 (PeproTech Inc, Rocky Hill, NJ) was added freshly every other day to the cells to a concentration of 0.25-0.5 μM. […]

[2] = system: hESC-derived pre-OLs (MBP reporter cells); test: Maturation of MBP-Tomato reporter pre-OLs under normoxia or after 48 h hypoxia (in vitro white matter injury model); assay type: cell-based, human; settings: for proportion of MBP Tomato co-expressing oligodendrocytes: PD0325901 0.25 μM alone or combined, vs vehicle (FIG. 13); for proportion of MBP+ Tomato+ mature oligodendrocytes: noggin 100 ng/ml, DAPT 1 μM
Protocol: Human ESCs (HES1 passages 21 to 42 with a normal karyotype) were cultured as described. hESC colonies were picked up by means of collagenase IV (1 mg/ml; GIBCO-BRL, Gaithersburg, MD) and placed into ultralow adherent culture dishes (Thermo Scientific Nunc HydroCell) to favor sphere aggregation. Spheres were cultured in NDM media consisting of Neural Differentiation Medium (Gibco) and N2B27 supplements with 20 ng/ml FGF-2. Spheres were first patterned with the dual-SMAD inhibitors LDN193189 (1 μM, Cayman Chemical, Ann Arbor, MI) and SB431542 (5 μM, SB; PeproTech Inc, Rocky Hill, NJ) until day 4 when SB431542 was withdrawn and the spheres were further cultured for additional 10 days in the presence LDN193189 and FGF-2. At day 14, the spheres were caudalized and ventralized using 0.1 μM all-trans retinoic acid and 0.5 μM purmorphamine, respectively (PeproTech Inc, Rocky Hill, NJ). At day 35, spheres were switched to modified SATO media, consisting of DMEM/F12, 10 ng/ml biotin, 60 ng/ml progesterone, 16 μg/ml putrescine, 20 μg/ml human insulin, 100 μg/ml apotransferrin, 5 ng/ml sodium selenite, 100 μg/ml bovine serum albumin (BSA), 60 μg/ml N-acetyl cysteine and 2 μg/ml forskolin. The medium was further supplemented with 20 ng/ml FGF-2, 0.5 μM Purmorphamine, 5 ng/ml NT3 and 200 nM ascorbic acid. Media was changed every 3 days for 6-7 weeks. For differentiation, spheres were dissected into small clusters mechanically and plated onto poly-D-lysine/laminin-coated plates and cultured in modified SATO media supplemented with 5 ng/ml NT3, 10 ng/ml IGF-1, 60 ng/ml T3, 100 ng/ml noggin and 200 nM ascorbic acid for 2-4 weeks.
To block Notch signaling, the γ-secretase inhibitor, DAPT (N—[N-(3,5-difluorphenacetyl)-L-alanyl]-S-phenylglycine t-butyl ester), PeproTech Inc, Rocky Hill, NJ) was added freshly every other day to the cells to a concentration of 1 μM. To block MEK/ERK signaling, PD0325901 (PeproTech Inc, Rocky Hill, NJ) was added freshly every other day to the cells to a concentration of 0.25-0.5 μM.
Immunocytochemistry: Cells were fixed in 4% paraformaldehyde for 20 min, washed with PBS, blocked in blocking solution (5% donkey serum, 0.2% Triton X-100 in PBS) for 1 hour, and incubated for 2 hours with primary antibodies mouse anti-Olig2 (Millipore Corporation diluted 1:150) and mouse anti-Nkx-2.2 (Developmental Studies Hybridoma Bank, diluted 1:100). After washing, cells were incubated with secondary antibody, donkey anti-mouse Alexa-488 (Life Technologies, Inc.), for 1 hour before being mounted in VECTASHIELD™ mounting medium. For O4 staining, cells were blocked in blocking solution (5% donkey serum in DMEM/F12) for 1 hour, and incubated with mouse-anti O4 antibody (R&D System, diluted 1:100) for 2 hours. After washing, cells were fixed in 4% paraformaldehyde for 20 min, and incubated with secondary antibody, donkey anti-mouse Alexa-488 or Alexa-555 (Life Technologies, Inc.), for 1 hour before being mounted in VECTASHIELD™ mounting medium. For MBP staining, after fixation cells were washed with PBS+0.01% saponin, blocked in blocking solution (5% goat serum, 0.01% saponin in DMEM/F12) for 1 hour, and incubated with rat anti-MBP antibody (R&D System 1:100) for 2 hours. After washing, cells were incubated with secondary antibody, goat anti-rat antibody (Jackson laboratories, 1:100) for 1 hour before being mounted in VECTASHIELD™ mounting medium.
Plasmid construction and gene targeting: Oligonucleotide encoding the MBP-targeting sgRNA was custom ordered (hy.labs), hybridized and ligated into the BbsI restriction site of pX330-U6-Chimeric-BB-CBh-hSpCas9 vector (Addgene #42230). Homology arms from the human mbp locus were amplified from genomic DNA isolated from HES1 cells by nested PCR (5′ arm: Chr18:74692386-74693344, 3′ arm: Chr18:74691209-74692367). The PCR products was digested and ligated into PNTKV-2A-Tomato donor plasmid. Correct construction of each expression cassette was verified by sequence analysis. […]

EAE mice = test: ICV delivery in chronic EAE, Biozzi mouse model of Multiple Sclerosis; assay type: in vivo, Biozzi ABH mice; settings: ICV mini-osmotic pump, 5 μg per day, vs vehicle-treated EAE mice
Excerpt: The Biozzi mouse model of Multiple Sclerosis: Biozzi ABH mice have genetic tendency to develop autoimmune diseases, and are used for many autoimmune models. The experimental autoimmune model in Biozzi mice is induced by immunization with spinal cord homogenate. Typically, mice develop an acute relapse, followed by remission, and after that a relapsing and progressive course of disease, resembling human multiple sclerosis (MS). […] In the chronic phase of EAE there are typical immunopathological features resembling progressive MS, such as meningeal infiltrates and development of tertiary lymphoid-like tissue, partial closing of the blood-brain-barrier, and reduction in lesion activity with increase in astrogliosis. Therefore, this model is considered one of the most clinical-relevant experimental models of MS. EAE was induced in Biozzi mice. Briefly, mice were inoculated subcutaneously at day 0 and day 7 in both hind flanks with 1 mg spinal cord homogenate emulsified in complete Freund's adjuvant supplemented with 3 μg M. Butyricum. Mice were monitored and scored daily in a blinded manner as follows: 0=normal, 1=limp tail, 2=impaired righting reflex, 3=hind-limb paresis; 4=complete hind-limb paralysis and 5=moribund/death. 10-14 days after the second relapse the mice were divided into two prospective experimental groups. […]

MEK-ERK signalling = settings: mouse; earlier stage of differentiation of the oligodendroglial lineage; cited from earlier work
[3] = system: oligodendroglial differentiation; settings: cited from earlier work
[4] = hypoxia 48 hours, then 3 weeks normoxia, vs vehicle

In the case of Oc1nc(-c2ccc(C(F)(F)F)cc2)nc2c1CSCC2 [XAV939], the “differentiation of oligodendrocyte progenitors (OLPs)” value [1] is listed as “promote differentiation”.

In the case of O=C(NOC[C@H](O)CO)c1ccc(F)c(F)c1Nc1ccc(I)cc1F [PD0325901], the “culture period after which maturation was obtained” value (hESC-derived pre-OL) is reported as 1 week, the “branching of processes of MBP+ cells” value (hESC-derived pre-OL; 1 week) is reported as “enhanced branching” and the “proportion of MBP mature oligodendrocytes / maturation into MBP+ cells” value (hESC-derived pre-OL; DAPT+noggin 2 weeks, PD0325901 1 week, vs vehicle) is reported as “highly significant augmentation”. The “proportion of MBP Tomato co-expressing oligodendrocytes” value ([2]; hypoxia exposed, one week following hypoxia) was “increased proportion”, the “MBP+ Tomato+-expressing oligodendrocytes” value ([2]; hypoxia-exposed cultures, 0.25 μM or 0.5 μM for one week) was “marked increase” and the “branching of processes of MBP+ Tomato+ oligodendrocytes” value ([2]; hypoxia-exposed cultures, one week) was “marked increase”. For the same molecule, the “number of MBP Tomato co-expressing oligodendrocytes” value (from here on “number”) ([2]; hypoxia-exposed, 0.25 μM, one week following hypoxia, vs vehicle (FIG. 11)) was “increased number”, the “number” value ([2]; hypoxia-exposed, 0.5 μM, one week following hypoxia, vs vehicle (FIG. 12)) was “increased number” and the “proportion of MBP+ Tomato+ oligodendrocytes” value ([2]; normoxia, 0.25 μM or 0.5 μM for one week, vs vehicle) was “significant increase”. For the same molecule, the “number” value ([2]; normoxia, 0.25 μM, one week, vs vehicle (FIG. 11)) was “increased number”, the “number” value ([2]; normoxia, 0.5 μM, one week, vs vehicle (FIG. 12)) was “increased number” and the “proportion of MBP Tomato co-expressing oligodendrocytes” value ([2]; normoxia, one week) was “increased proportion”. The “branching of the processes of MBP+ oligodendrocytes” value ([2]; normoxia, one week) was “significantly enhanced”, the “effect on pre-OLs maturation compared with noggin or DAPT” value ([2]; one week of treatment vs two-three weeks with noggin and/or DAPT) was “more prominent” and the “disease course: mean cumulative score of disease” value (EAE mice; 28 days from implantation) was “significantly milder”. For the same molecule, the “disease course: final clinical score at day of termination” value (EAE mice; 28 days) was “significantly milder” and the oligodendrocyte differentiation (MEK-ERK signalling) was “augment oligodendrocyte differentiation”.

In the case of C[C@H](NC(=O)Cc1cc(F)cc(F)c1)C(=O)N[C@H](C(=O)OC(C)(C)C)c1ccccc1 [DAPT, N—[N-(3,5-difluorphenacetyl)-L-alanyl]-S-phenylglycine t-butyl ester], the “proportion of MBP+ Tomato+ mature oligodendrocytes” value [2, 4] is reported as “increased differentiation” and the “proportion of MBP+ Tomato+ mature oligodendrocytes” value ([2]; normoxia, 3 weeks, vs vehicle) is reported as “did not increase”.

B1: noggin: BMP antagonist (protein, UniProt Q13253 28-232, looked up)
Noggin: QHYLHIRPAPSDNLPLVDLIEHPDPIFDPKEKDLNETLLRSLLGGHYDPGFMATSPPEDRPGGGGGAAGGAEDLAELDQLLRQRPSGAMPSEIKGLEFSEGLAQGKKQRLSKKLRRKLQMWLWSQTFCPVLYAWNDLGSRFWPRYVKVGSCFSKRSCSVPEGMVCKPSKSVHLTVLRWRCQRRGGQRCGWIPIQYPIISECKCSC
For B1, the “proportion of MBP+ Tomato+ mature oligodendrocytes” value [2, 4] is given as “substantial increase”, the “proportion of MBP+ Tomato+ mature oligodendrocytes” value ([2]; normoxia, 3 weeks, vs vehicle) is given as “substantial increase” and the “oligodendroglial differentiation and maturation” value [3] is given as “enhance oligodendroglial differentiation and maturation”.

Source: patent US12661329B2, “Methods of generating oligodendrocytes” (Hadasit Medical Research Services and Development Ltd., priority 2019, dated 2026)
